This note sets out measurements from ChEMBL document CHEMBL3352757, “Mono- and di-halogenated histamine, histidine and carnosine derivatives are potent carbonic anhydrase I, II, VII, XII and XIV activators” (Bioorg Med Chem, 2014).

The target of assay [1] is Carbonic anhydrase 7 (Homo sapiens) (UniProt P43166). Nature of the assay: Activation of […] human carbonic anhydrase-7 incubated for 15 mins prior to testing by stopped-flow CO2 hydrase assay.
In assay [2] the target is Carbonic anhydrase 14 (Homo sapiens) (UniProt Q9ULX7). Nature of the assay: Activation of transmembrane human carbonic anhydrase-14 incubated for 15 mins prior to testing by stopped-flow CO2 hydrase assay.
Sequence of Carbonic anhydrase 14 (Homo sapiens) (Q9ULX7 whole entry): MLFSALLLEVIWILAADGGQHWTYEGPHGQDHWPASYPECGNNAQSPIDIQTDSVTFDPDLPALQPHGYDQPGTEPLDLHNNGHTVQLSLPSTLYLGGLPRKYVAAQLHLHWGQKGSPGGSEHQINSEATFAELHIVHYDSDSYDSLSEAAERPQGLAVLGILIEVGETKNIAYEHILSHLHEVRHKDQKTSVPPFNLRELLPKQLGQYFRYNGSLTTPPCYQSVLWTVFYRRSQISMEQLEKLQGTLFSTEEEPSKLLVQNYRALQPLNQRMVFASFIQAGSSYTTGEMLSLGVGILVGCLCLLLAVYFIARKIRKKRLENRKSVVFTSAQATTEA
For assay [3], the target named is Carbonic anhydrase 2 (Homo sapiens) (UniProt P00918). Nature of the assay: Activation of […] human carbonic anhydrase-2 incubated for 15 mins prior to testing by stopped-flow CO2 hydrase assay.
For assay [4], the target named is Carbonic anhydrase 1 (Homo sapiens) (UniProt P00915). Nature of the assay: Activation of […] human carbonic anhydrase-1 incubated for 15 mins prior to testing by stopped-flow CO2 hydrase assay.
Sequence of Carbonic anhydrase 1 (Homo sapiens) (P00915 2-261 limits assumed): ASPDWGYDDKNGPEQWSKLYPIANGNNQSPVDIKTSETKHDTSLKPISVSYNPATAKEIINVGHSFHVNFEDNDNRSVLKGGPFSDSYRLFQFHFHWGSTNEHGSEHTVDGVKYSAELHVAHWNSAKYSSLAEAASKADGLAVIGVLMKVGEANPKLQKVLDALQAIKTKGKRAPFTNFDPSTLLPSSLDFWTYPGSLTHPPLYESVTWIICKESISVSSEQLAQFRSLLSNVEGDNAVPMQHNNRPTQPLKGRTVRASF
Assay [5] deals with Carbonic anhydrase 12 (Homo sapiens) (UniProt O43570). Kind of assay: Activation of transmembrane human carbonic anhydrase-12 incubated for 15 mins prior to testing by stopped-flow CO2 hydrase assay.
Sequence of Carbonic anhydrase 12 (Homo sapiens) (O43570 whole entry): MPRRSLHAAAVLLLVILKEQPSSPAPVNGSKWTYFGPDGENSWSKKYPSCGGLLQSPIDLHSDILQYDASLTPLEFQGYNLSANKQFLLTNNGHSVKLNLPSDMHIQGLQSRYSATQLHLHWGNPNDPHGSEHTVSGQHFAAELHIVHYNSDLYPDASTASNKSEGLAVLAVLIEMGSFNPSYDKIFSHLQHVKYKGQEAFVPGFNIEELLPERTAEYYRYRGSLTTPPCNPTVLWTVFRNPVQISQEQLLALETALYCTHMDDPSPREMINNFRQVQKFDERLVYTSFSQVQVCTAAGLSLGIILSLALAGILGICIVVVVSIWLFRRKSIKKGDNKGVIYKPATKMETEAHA

Sequence of Carbonic anhydrase 7 (Homo sapiens) (P43166 whole entry): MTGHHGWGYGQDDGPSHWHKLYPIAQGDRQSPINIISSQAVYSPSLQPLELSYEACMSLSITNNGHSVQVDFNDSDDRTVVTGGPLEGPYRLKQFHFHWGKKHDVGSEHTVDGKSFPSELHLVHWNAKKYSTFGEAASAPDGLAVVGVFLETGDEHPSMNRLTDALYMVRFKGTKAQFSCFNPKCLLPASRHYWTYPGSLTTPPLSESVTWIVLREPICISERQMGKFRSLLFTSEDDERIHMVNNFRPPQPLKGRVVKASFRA

For the compound `COC(=O)[C@H](Cc1nc[nH]c1I)NC(=O)CCN`, the KA amounted to 1.06 µM in assay [1]; 39.2 µM in assay [2]; 1.6 µM in assay [3]; 7.6 µM in assay [4]; 40.1 µM in assay [5].
Turning to `CC(C)(C)OC(=O)NCCc1nc(Br)[nH]c1Br`, the KA in assay [1] was found to be 28.3 µM; in assay [2], 29.5 µM; in assay [3], 28.5 µM; in assay [4], 13.3 µM; in assay [5] it was 37.4 µM.
The matching figures for `COC(=O)[C@@H](N)Cc1nc(Br)[nH]c1Br`: 9.7 µM, 22.1 µM, 1.08 µM, 1.4 µM and 0.83 µM.
The matching figures for `COC(=O)[C@H](Cc1nc(Br)[nH]c1Br)NC(=O)CCNC(=O)OC(C)(C)C`: 4 µM, 40.8 µM, 34.8 µM, 21.5 µM and 31.6 µM.
Consider `COC(=O)[C@H](Cc1nc(I)[nH]c1I)NC(=O)CCNC(=O)OC(C)(C)C`, for which the KA was 0.74 µM in assay [1]; 52.7 µM in assay [2]; 8.2 µM in assay [3]; 18.7 µM in assay [4]; 40.5 µM in assay [5].
As for `CC(C)(C)OC(=O)NCCc1nc(I)[nH]c1I`, the KA in assay [1] was 45.6 µM; in assay [2] it was 37.1 µM; in assay [3], 36.7 µM; in assay [4], 12.1 µM; in assay [5] it was 35 µM.
The matching figures for `COC(=O)[C@H](Cc1nc[nH]c1Cl)NC(=O)CCNC(=O)OC(C)(C)C`: 12.1 µM, 7.9 µM, 48.5 µM, 34.3 µM and 2.5 µM.
For the compound `COC(=O)[C@H](Cc1nc[nH]c1Cl)NC(=O)OC(C)(C)C`, the KA came to 47.6 µM in assay [1]; 24.1 µM in assay [2]; 29 µM in assay [3]; 10.1 µM in assay [4]; 42.5 µM in assay [5].
The like results for `COC(=O)[C@@H](N)Cc1c[nH]cn1` were, in that order, 0.88 µM, 0.93 µM, 10.4 µM, 0.02 µM and 0.91 µM.
With `COC(=O)[C@H](Cc1nc(Br)[nH]c1Br)NC(=O)CCN`, the KA was 0.0081 µM in assay [1]; 18.9 µM in assay [2]; 4.1 µM in assay [3]; 30.7 µM in assay [4]; 1.84 µM in assay [5].
Take `COC(=O)[C@@H](N)Cc1nc[nH]c1Br`: the KA in assay [1] is 12.3 µM; in assay [2], 5.2 µM; in assay [3] it was 10.4 µM; in assay [4], 13.6 µM; in assay [5] it was 1.01 µM.
Regarding `COC(=O)[C@H](Cc1nc[nH]c1Br)NC(=O)OC(C)(C)C`, the KA in assay [1] came to 40.2 µM; in assay [2], 0.92 µM; in assay [3] it was 26.5 µM; in assay [4], 7.3 µM; in assay [5], 10.7 µM.
Turning to `CC(C)(C)OC(=O)NCCc1nc[nH]c1Cl`, the KA in assay [1] came to 24.9 µM; in assay [2], 45.2 µM; in assay [3], 50.2 µM; in assay [4], 5.4 µM; in assay [5], 18.8 µM.
The matching figures for `NCCc1nc(Cl)[nH]c1Cl`: 0.041 µM, 38.9 µM, 0.032 µM, 0.018 µM and 5.7 µM.
With `NCCc1nc[nH]c1I`, the KA in assay [1] was 7.6 µM; in assay [2], 7.1 µM; in assay [3], 0.065 µM; in assay [4], 0.0009 µM; in assay [5], 0.9 µM.
With `COC(=O)[C@@H](N)Cc1nc(I)[nH]c1I`, the KA in assay [1] worked out at 3.6 µM; in assay [2], 24.3 µM; in assay [3] it was 1.12 µM; in assay [4], 0.96 µM; in assay [5] it was 10.9 µM.
Regarding `COC(=O)[C@@H](N)Cc1nc[nH]c1Cl`, the KA in assay [1] was 36.1 µM; in assay [2] it was 6.4 µM; in assay [3], 13.1 µM; in assay [4] it was 21.3 µM; in assay [5] it was 0.078 µM.
As for `CC(C)(C)OC(=O)NCCc1nc[nH]c1I`, the KA in assay [1] was 21.5 µM; in assay [2], 30.9 µM; in assay [3] it was 13.6 µM; in assay [4] it was 29.3 µM; in assay [5], 44.3 µM.
Regarding `COC(=O)[C@H](Cc1nc(Br)[nH]c1Br)NC(=O)OC(C)(C)C`, the KA was 13.1 µM in assay [1]; 3.51 µM in assay [2]; 0.96 µM in assay [3]; 0.032 µM in assay [4]; 1.62 µM in assay [5].
With `COC(=O)[C@H](Cc1nc[nH]c1Br)NC(=O)CCNC(=O)OC(C)(C)C`, the KA was determined as 5.2 µM in assay [1]; 36.5 µM in assay [2]; 0.97 µM in assay [3]; 2.6 µM in assay [4]; 24.9 µM in assay [5].
Turning to `COC(=O)[C@H](Cc1nc(Cl)[nH]c1Cl)NC(=O)CCN`, the KA in assay [1] stood at 0.01 µM; in assay [2], 10.3 µM; in assay [3] it was 10.9 µM; in assay [4] it was 22.5 µM; in assay [5], 0.072 µM.
As to `NCCc1nc(Br)[nH]c1Br`, the KA in assay [1] turned out to be 0.74 µM; in assay [2], 13.1 µM; in assay [3] it was 0.008 µM; in assay [4], 0.012 µM; in assay [5], 25.2 µM.
Take `COC(=O)[C@H](Cc1nc(I)[nH]c1I)NC(=O)CCN`: the KA was 3.5 µM in assay [1]; 20.1 µM in assay [2]; 2.9 µM in assay [3]; 21.4 µM in assay [4]; 10.5 µM in assay [5].
With `NCCc1nc[nH]c1Br`, the KA was found to be 5.2 µM in assay [1]; 16.2 µM in assay [2]; 0.096 µM in assay [3]; 0.015 µM in assay [4]; 3.2 µM in assay [5].
Consider `COC(=O)[C@H](Cc1c[nH]cn1)NC(=O)CCN`, for which the KA in assay [1] turned out to be 0.84 µM; in assay [2] it was 0.71 µM; in assay [3] it was 32 µM; in assay [4], 10.9 µM; in assay [5], 0.96 µM.
Consider `COC(=O)[C@@H](N)Cc1nc(Cl)[nH]c1Cl`, for which the KA in assay [1] is 24.9 µM; in assay [2], 20.6 µM; in assay [3], 10.5 µM; in assay [4], 31.2 µM; in assay [5], 27.1 µM.
For the compound `COC(=O)[C@H](Cc1nc[nH]c1I)NC(=O)OC(C)(C)C`, the KA came out at 38.5 µM in assay [1]; 13.5 µM in assay [2]; 0.012 µM in assay [3]; 0.0009 µM in assay [4]; 6.1 µM in assay [5].
With `CC(C)(C)OC(=O)NCCc1nc[nH]c1Br`, the KA is 10.4 µM in assay [1]; 34.7 µM in assay [2]; 44.5 µM in assay [3]; 7.1 µM in assay [4]; 52.8 µM in assay [5].
As to `COC(=O)[C@H](Cc1nc[nH]c1I)NC(=O)CCNC(=O)OC(C)(C)C`, the KA in assay [1] was found to be 0.81 µM; in assay [2], 24.6 µM; in assay [3], 5.2 µM; in assay [4], 4.3 µM; in assay [5], 28.7 µM.
Consider `COC(=O)[C@H](Cc1nc(Cl)[nH]c1Cl)NC(=O)CCNC(=O)OC(C)(C)C`, for which the KA in assay [1] is 0.12 µM; in assay [2], 33.5 µM; in assay [3], 18.6 µM; in assay [4], 10.1 µM; in assay [5] it was 9.7 µM.
For `NCCc1nc[nH]c1Cl`, the KA amounted to 15.3 µM in assay [1]; 38.7 µM in assay [2]; 0.115 µM in assay [3]; 0.021 µM in assay [4]; 12.1 µM in assay [5].
The matching figures for `CC(C)(C)OC(=O)NCCc1nc(Cl)[nH]c1Cl`: 13.1 µM, 28.1 µM, 24.8 µM, 16.5 µM and 40.2 µM.
On to `COC(=O)[C@H](Cc1nc[nH]c1Cl)NC(=O)CCN`, for which the KA in assay [1] amounted to 0.013 µM; in assay [2] it was 15.3 µM; in assay [3], 30.9 µM; in assay [4] it was 1.25 µM; in assay [5] it was 21.5 µM.
The like results for `NCCc1nc(I)[nH]c1I` were, in that order, 1.39 µM, 15.5 µM, 0.001 µM, 0.0007 µM and 34.6 µM.
`COC(=O)[C@H](Cc1nc(I)[nH]c1I)NC(=O)OC(C)(C)C`: the KA was determined as 10.3 µM in assay [1]; 34.9 µM in assay [2]; 0.013 µM in assay [3]; 0.0015 µM in assay [4]; 64.7 µM in assay [5].
Regarding `COC(=O)[C@H](Cc1nc[nH]c1Br)NC(=O)CCN`, the KA in assay [1] was found to be 1.02 µM; in assay [2] it was 28.4 µM; in assay [3], 1.78 µM; in assay [4] it was 2.1 µM; in assay [5] it was 30.7 µM.
With `COC(=O)[C@@H](N)Cc1nc[nH]c1I`, the KA worked out at 6.2 µM in assay [1]; 7.8 µM in assay [2]; 0.32 µM in assay [3]; 0.0012 µM in assay [4]; 14.3 µM in assay [5].
The like results for `COC(=O)[C@H](Cc1nc(Cl)[nH]c1Cl)NC(=O)OC(C)(C)C` were, in that order, 50.7 µM, 1.4 µM, 40.3 µM, 2.45 µM and 25.3 µM.
